Where two headings read alike, the source gives them in different places.
What was measured:
[1] = biological target: T1, σ1 receptors (Rattus norvegicus, UniProt Q9R0C9); test: ED50 for pre-blocking of ^18F-FTC146 uptake in rat whole brain (PET); format: in vivo
T1 construct: from tissue; host or cells: brain of living male rats (PET imaging)
Experimental: (§1) For radioligand injection, a polyethylene catheter (PE 10) was inserted into the penile vein of a male rat and then secured with tissue adhesive and tape. For dynamic scanning, the rats were secured with tape in the scanner and kept under 1.5% isoflurane anesthesia via a nose cone. Body temperature was monitored with a rectal probe. All PET scans were performed on a microPET Focus 220 scanner (Siemens Medical Solutions) (7,8). Data were acquired in listmode and reconstructed with Fourier rebinning + 2D filtered backprojection. A transmission scan was acquired before radioligand injection for attenuation correction. Dynamic scanning began at the time of a one-minute intravenous bolus injection of the radioligand under study (55 ± 19 MBq; volume 0.2 to 1.0 mL). The injected mass dose was 3 ± 1 nmol/kg. Challenge agents were administered intravenously 10 minutes before the radioligand for pre-blocking studies or 10 minutes after the radioligand for displacement studies. Tomographic images were analyzed with pixel-wise modeling computer software (PMOD 2.6; PMOD Group). Regions-of-interest in the brain were delineated, and time-activity curves calculated as SUV versus time.
Pre-blocking and displacement experiments were performed to assess radioligand target engagement and radioligand selectivity in vivo. Normally 4 doses of 0.01 mg/kg, 0.05 mg/kg, 0.25 mg/kg, and 1.25 mg/kg were used for preblocking experiments, and only 2 doses of 0.25 mg/kg and 1.25 mg/kg were used for displacement experiments. […] […] […] […] Where data permitted, the dose-response curves were fitted with GraphPad Prism software (version 8.1.1; GraphPad) to estimate the ED50 values. A dummy value of 100 pmol per kg body weight was used for zero concentration of the challenge agent in the construction of these dose-response curves. Numerical data are expressed as mean ± S.D. for n>2, or as mean and range for n = 2.

[2] = biological target: σ1 receptor; details: cited from earlier work
[3] = biological target: σ2 receptor; details: cited from earlier work
[4] = biological target: T2, GluN2B (Homo sapiens, UniProt Q05586+Q13224); details: cited from earlier work
T2 construct: expressed in transfected cells; host or cells: transiently transfected mouse fibroblast cells (membrane homogenate)
T2 sequence (Q13224 27-1484, species assumed, other chains not shown): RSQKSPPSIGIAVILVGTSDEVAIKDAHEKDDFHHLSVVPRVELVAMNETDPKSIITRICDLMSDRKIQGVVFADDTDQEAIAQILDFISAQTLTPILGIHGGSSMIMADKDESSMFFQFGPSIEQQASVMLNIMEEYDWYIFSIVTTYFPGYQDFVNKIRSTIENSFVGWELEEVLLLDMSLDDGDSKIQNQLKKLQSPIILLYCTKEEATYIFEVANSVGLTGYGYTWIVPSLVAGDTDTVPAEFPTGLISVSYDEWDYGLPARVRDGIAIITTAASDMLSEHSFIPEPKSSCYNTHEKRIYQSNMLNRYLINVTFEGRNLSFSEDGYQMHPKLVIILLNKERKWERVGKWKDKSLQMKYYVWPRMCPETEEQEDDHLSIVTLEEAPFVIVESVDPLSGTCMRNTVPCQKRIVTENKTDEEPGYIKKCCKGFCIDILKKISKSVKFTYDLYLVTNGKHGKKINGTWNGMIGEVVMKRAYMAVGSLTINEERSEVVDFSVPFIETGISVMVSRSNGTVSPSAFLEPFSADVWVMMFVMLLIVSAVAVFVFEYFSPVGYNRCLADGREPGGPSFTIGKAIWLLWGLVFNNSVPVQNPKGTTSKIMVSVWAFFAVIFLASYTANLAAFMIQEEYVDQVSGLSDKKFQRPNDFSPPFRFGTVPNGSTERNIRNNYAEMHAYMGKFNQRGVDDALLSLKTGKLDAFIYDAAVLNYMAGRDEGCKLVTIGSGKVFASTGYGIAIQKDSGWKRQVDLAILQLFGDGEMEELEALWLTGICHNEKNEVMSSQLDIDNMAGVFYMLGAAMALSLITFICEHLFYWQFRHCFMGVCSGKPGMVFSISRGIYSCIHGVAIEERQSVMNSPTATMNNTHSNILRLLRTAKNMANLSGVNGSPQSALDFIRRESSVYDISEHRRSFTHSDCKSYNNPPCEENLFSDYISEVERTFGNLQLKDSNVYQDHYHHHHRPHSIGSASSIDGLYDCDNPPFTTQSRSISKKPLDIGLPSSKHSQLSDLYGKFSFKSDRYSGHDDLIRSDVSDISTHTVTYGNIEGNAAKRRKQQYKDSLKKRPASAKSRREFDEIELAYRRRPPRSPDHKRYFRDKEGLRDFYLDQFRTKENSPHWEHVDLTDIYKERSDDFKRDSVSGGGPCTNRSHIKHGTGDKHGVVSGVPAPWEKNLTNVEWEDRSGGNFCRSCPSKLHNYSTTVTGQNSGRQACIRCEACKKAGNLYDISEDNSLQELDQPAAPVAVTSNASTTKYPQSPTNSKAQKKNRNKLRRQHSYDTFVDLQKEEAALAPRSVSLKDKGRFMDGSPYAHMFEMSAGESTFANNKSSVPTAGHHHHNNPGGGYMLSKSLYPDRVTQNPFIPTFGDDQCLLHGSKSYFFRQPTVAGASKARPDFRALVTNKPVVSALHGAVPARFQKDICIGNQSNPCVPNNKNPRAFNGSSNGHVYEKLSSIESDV

[5] = rat, cited from earlier work
[6] = biological target: T3, GluN2B receptors (Rattus norvegicus, UniProt P35439+Q00960); test: ED50 for pre-blocking of GluN2B radioligand uptake in rat whole brain (PET); format: in vivo; details: for effect of pre-administration on whole rat brain radioactivity uptake of GluN2B radioligands: ^11C-NR2B-Me enantiomers (also ^11C-(S)-NR2B-SMe); for ED50 in rat whole brain in vivo ^11C-(+)-NR2B-Me: radioligand ^11C-(+)-NR2B-Me; for ED50 in rat whole brain in vivo ^11C-(+)-NR2B-Me / ED50 in rat whole brain in vivo ^11C-(−)-NR2B-Me: AUC 20-90 min; for ED50 in rat whole brain in vivo ^11C-(−)-NR2B-Me: radioligand ^11C-(−)-NR2B-Me
T3 construct: from tissue; host or cells: brain of living male rats (PET imaging)
T3 sequence (Q00960 27-1482, other chains not shown): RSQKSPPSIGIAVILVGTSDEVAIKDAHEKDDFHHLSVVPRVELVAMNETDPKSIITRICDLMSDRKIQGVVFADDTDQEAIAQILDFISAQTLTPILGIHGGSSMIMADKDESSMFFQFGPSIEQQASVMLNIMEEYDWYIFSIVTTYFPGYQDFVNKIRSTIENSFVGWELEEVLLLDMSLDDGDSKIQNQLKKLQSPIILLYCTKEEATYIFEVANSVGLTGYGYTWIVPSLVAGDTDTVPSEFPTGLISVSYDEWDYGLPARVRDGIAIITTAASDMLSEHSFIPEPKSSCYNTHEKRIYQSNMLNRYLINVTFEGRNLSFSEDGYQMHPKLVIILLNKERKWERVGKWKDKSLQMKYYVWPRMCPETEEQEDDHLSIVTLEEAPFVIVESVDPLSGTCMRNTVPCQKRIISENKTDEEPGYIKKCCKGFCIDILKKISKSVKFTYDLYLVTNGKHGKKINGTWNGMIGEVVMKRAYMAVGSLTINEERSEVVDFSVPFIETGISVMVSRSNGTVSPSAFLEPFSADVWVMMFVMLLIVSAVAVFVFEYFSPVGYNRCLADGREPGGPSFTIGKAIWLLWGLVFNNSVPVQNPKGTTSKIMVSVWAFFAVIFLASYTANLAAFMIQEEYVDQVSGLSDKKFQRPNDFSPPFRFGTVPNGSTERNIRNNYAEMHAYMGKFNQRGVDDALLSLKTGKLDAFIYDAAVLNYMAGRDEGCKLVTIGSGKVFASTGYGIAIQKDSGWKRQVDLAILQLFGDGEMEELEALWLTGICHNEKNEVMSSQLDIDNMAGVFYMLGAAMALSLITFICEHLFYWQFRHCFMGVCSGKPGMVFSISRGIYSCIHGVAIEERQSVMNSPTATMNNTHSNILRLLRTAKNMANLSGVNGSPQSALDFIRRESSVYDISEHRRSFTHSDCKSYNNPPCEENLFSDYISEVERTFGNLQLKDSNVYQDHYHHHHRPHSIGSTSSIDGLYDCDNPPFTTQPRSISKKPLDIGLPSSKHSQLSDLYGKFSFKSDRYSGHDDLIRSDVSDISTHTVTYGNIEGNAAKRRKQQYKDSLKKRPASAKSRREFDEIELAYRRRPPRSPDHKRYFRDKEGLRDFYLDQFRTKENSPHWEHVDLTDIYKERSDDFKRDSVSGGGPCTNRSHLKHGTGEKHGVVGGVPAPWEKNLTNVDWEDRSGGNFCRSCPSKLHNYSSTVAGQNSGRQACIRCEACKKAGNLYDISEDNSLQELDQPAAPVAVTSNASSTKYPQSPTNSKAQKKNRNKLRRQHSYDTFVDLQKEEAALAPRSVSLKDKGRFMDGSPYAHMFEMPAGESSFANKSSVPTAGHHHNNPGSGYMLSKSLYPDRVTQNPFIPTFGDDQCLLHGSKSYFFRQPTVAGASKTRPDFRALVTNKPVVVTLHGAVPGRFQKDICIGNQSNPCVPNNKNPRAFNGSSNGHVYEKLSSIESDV
Experimental: as §1, with “For dynamic scanning, the rats were secured with tape in the scanner and kept under 1.5% isoflurane anesthesia via a nose cone.” left out
(§2) Pre-blocking and displacement experiments were performed to assess radioligand target engagement and radioligand selectivity in vivo. […] Areas-under the curve (AUCs) from time-activity curves between 20 and 90 minutes were calculated for each radioligand. AUCs obtained from the same production of radioligand were scaled to the value (or mean value) for the baseline experiment to give relative values (relative AUC20–90 min). […] Where data permitted, the dose-response curves were fitted with GraphPad Prism software (version 8.1.1; GraphPad) to estimate the ED50 values. A dummy value of 100 pmol per kg body weight was used for zero concentration of the challenge agent in the construction of these dose-response curves. Numerical data are expressed as mean ± S.D. for n>2, or as mean and range for n = 2.

[7] = biological target: T3, GluN2B receptors; parameters: method as in PMID 31924728; details: pre-blocking, radioligand ^11C-(S)-NR2B-SMe; cited from earlier work
[8] = biological target: guinea pig σ1 receptor (Cavia porcellus, UniProt Q60492); test: PDSP σ1 receptor binding
guinea pig σ1 receptor, sequence (Q60492 whole entry): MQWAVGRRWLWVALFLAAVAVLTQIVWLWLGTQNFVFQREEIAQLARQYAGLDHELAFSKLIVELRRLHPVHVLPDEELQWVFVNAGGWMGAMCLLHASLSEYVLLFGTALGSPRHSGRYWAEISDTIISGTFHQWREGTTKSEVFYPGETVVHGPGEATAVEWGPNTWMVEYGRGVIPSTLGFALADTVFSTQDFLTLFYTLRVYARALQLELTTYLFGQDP
Source text: (§3) NR2B-Me was submitted to the PDSP for assessment of binding affinity against a wide range of other receptors and binding sites. A full listing of these receptors and binding sites is given in the Supplemental Results. Detailed assay protocols are available at the PDSP website (http://pdsp.cwru.edu).
(§4) Assessment of Binding Affinity against a Wide Range of Other Receptors and Binding Sites. NR2B-Me was submitted to the National Institute of Mental Health Psychoactive Drug Screening program (NIMH-PDSP) to assess binding affinity against a wide range of other receptors and binding sites (5-HT1A, 1B, 1D, 1E, 2A, 2A agonist, 2A antagonist, 2B, 2B agonist, 2B antagonist, 2C, 2C agonist, 2C antagonist, 3, 5A, 6, 7; α2; α2β2, α2β2, α3β2, α3β4, α4β2, α4β4, α7; α1A, 1A agonist, 1B, 1B agonist, 1B antagonist, 2A-2C; AMPA*; β1-3; BZPa1-3, a5, a6, rat brain site; Ca^2+-Channel; CB1-2, D1, 2, 2 agonist, 2 antagonist, 3-5; DAT; DOR; EP1-4; GABAA,B; GPR40,41,43; H1-4; HERG; IMIDAZOLINE 1; KA-R*; KOR, KORagonist, antagonist; M1, 1 agonist, 1 antagonist, 2, 3, 3 agonist, 3 antagonist, 4, 5, 5 agonist, 5 antagonist; MDR 1; mGluR1A,2,4,5,5-cloned,5-rat brain,6,8; MOR; Na^+-Channel; NET; NK1, 1 antagonist, 2, 2 antagonist, 3, 3 antagonist; NMDA; NMDA/MK801; NT-1; OXYTOCINagonist, antagonist; PAR1agonist, antagonist; PCP; PKCA, B, D, E, G; PTHR2, Purinergicagonist, antagonist; SET; σ1,2; V1, 1 agonist, 1 antagonist, 2, 2 agonist, 2 antagonist, 3, 3 agonist, 3 antagonist, VMAT1, 2).

[9] = biological target: T4, PC12 cell σ2 receptors (Rattus norvegicus, UniProt Q5U3Y7); test: PDSP σ2 receptor binding
T4 construct: endogenous in cells; host or cells: PC12 cells
T4 sequence (Q5U3Y7 1-176): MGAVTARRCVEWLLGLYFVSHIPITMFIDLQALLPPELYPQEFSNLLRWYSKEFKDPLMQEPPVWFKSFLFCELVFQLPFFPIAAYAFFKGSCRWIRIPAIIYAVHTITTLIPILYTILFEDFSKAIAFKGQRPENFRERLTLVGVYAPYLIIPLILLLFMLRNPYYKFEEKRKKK
Source text: as §3, §4

[10] = biological target: T3, GluN2B receptors; test: PET displacement / pre-blocking of ^11C-NR2B-Me radioligands with Ro-25-6981, Lassen plots; format: in vivo; details: for BPND (SUVBL/SUVND−1), whole rat brain: Lassen (SUV) plots; for non-displaceable binding (X-axis intercept of Lassen plots): rat brain, pre-blocking with 0.25 mg/kg Ro-25-6981, on average; for displacement from peak value at 90 min: rat whole brain, Ro-25-6981 0.25 mg/kg i.v. 10 min after radioligand, n = 1
Experimental: as §1, with “For dynamic scanning, the rats were secured with tape in the scanner and kept under 1.5% isoflurane anesthesia via a nose cone.” left out
as §2

[11] = parameters: method as in PMID 30030340; details: rhesus monkeys, PET; cited from earlier work
[12] = 45 min after intravenous injection
[13] = PET, sixty minutes after injection
[14] = 30 min after intravenous injection

T1 sequence (Q9R0C9 whole entry): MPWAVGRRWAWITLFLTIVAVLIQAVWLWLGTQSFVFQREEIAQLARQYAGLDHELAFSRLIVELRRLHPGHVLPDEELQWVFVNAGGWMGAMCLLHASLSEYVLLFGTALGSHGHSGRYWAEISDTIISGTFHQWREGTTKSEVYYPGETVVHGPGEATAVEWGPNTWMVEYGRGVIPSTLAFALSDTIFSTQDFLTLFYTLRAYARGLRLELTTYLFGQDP

Compound: COc1ccc2c(c1)CCN(CCCCc1ccc(SC)cc1)C[C@H]2O [(S)-NR2B-SMe]
- ED50 versus ^18F-FTC146 ([1]; rat whole brain): exceeded 1 µmol per kg body weight
- Ki ([2]; read-out: σ1 Ki): 24 nM
- Ki ([3]; read-out: σ2 Ki): 140 nM

Compound: C[C@@H](CN1CCC(Cc2ccccc2)CC1)[C@@H](O)c1ccc(O)cc1 [Ro-25-6981]
- Ki [4]: 9 nM

Compound: Oc1ccc2c(c1)CCN(CCCCc1ccc([18F])cc1)C[C@@H]2O [(R)-^18F-PF-NB1]
- radioactivity in cerebellum as % of that in cortex [5, 12]: 85%
- radioactivity in cerebellum as % of that in hippocampus [5, 12]: 110%
- radioactivity in cerebellum as % of that in striatum [5, 12]: 95%
- radioactivity in cerebellum as % of that in thalamus [5, 12]: 92%

Compound: COc1ccc2c(c1)CCN(CCCCc1ccc(SC)cc1)C[C@@H]2O [(R)-NR2B-SMe]
- Ki ([2]; read-out: σ1 Ki): 88 nM
- Ki ([3]; read-out: σ2 Ki): 110 nM

Compound: Cc1ccc(CC2(O)CCN(CCOc3ccc(O)cc3)CC2)cc1 [CO101,244]
- ED50 ([6]; rat, read-out: ED50 in rat whole brain in vivo ^11C-(+)-NR2B-Me): 0.041 µmol/kg
- Ki [4]: 43 nM
- ED50 in rat whole brain in vivo ^11C-(S)-NR2B-SMe [7]: 74 nmol/kg

Compound: COc1ccc(CCN2CCN(CCCc3ccccc3)CC2)cc1OC [SA4503]
- effect of pre-administration on whole rat brain radioactivity uptake of GluN2B radioligands [6]: strong pre-blocking effects
- ED50 in rat whole brain in vivo ^11C-(+)-NR2B-Me ([6]; pre-blocking): 41 nmol/kg
- ED50 in rat whole brain in vivo ^11C-(−)-NR2B-Me ([6]; pre-blocking): 43 nmol/kg
- Ki ([2]; reference radioligand ^3H-pentazocine, ref 38, 43, read-out: Ki for σ1): 4.6 nM
- Ki ([2]; reference radioligand ^3H-pentazocine, ref 41, 42, read-out: Ki for σ1): 17.4 nM
- Ki ([3]; reference radioligand ^3H-DTG, ref 38, 43, read-out: Ki for σ2): 63 nM
- Ki ([3]; reference radioligand ^3H-DTG, ref 41, 42, read-out: Ki for σ2): 1780 nM

Compound: COC(=O)C1(c2ccc(C)cc2)CC1CN1CCC(O)(c2ccccc2)CC1 (racemic) [( ±)-PPCC]
- ED50 in rat whole brain in vivo ^11C-(−)-NR2B-Me ([6]; pre-blocking): > 1000 nmol/kg
- Ki ([2]; reference radioligand ^3H-pentazocine, ref 45, read-out: Ki for σ1): 1.5 nM
- Ki ([3]; reference radioligand ^3H-DTG, ref 45, read-out: Ki for σ2): 50.8 nM

Compound: [11CH3]Oc1ccc2c(c1)CCN(CCCCc1ccccc1)C[C@@H]2O [(R)-^11C-Me-NB1]
- radioactivity concentration in cerebellum as % of that in cortex [5, 13]: 79%
- radioactivity concentration in cerebellum as % of that in hippocampus [5, 13]: 74%
- radioactivity concentration in cerebellum as % of that in striatum [5, 13]: 75%
- radioactivity concentration in cerebellum as % of that in thalamus [5, 13]: 83%

Compound: OC12C3C4CC5C6C4C1C6C(C53)N2CCc1cccc(F)c1 (stereo not shown) [TC1]
- effect of pre-administration on whole rat brain radioactivity uptake of GluN2B radioligands [6]: strong pre-blocking effects
- ED50 in rat whole brain in vivo ^11C-(+)-NR2B-Me ([6]; pre-blocking): 64 nmol/kg
- ED50 in rat whole brain in vivo ^11C-(−)-NR2B-Me ([6]; pre-blocking): 48 nmol/kg
- Ki ([2]; reference radioligand ^3H-pentazocine, ref 40, read-out: Ki for σ1): 10 nM
- Ki ([3]; reference radioligand ^3H-DTG, ref 40, read-out: Ki for σ2): 370 nM

Compound: CN(C)CCN(C)CCc1ccc(Cl)c(Cl)c1 [BD1047]
- effect of pre-administration on whole rat brain radioactivity uptake of GluN2B radioligands [6]: minimal effects
- ED50 in rat whole brain in vivo ^11C-(+)-NR2B-Me ([6]; pre-blocking): 555 nmol/kg
- ED50 in rat whole brain in vivo ^11C-(−)-NR2B-Me ([6]; pre-blocking): 900 nmol/kg
- ED50 in rat whole brain in vivo ^11C-(−)-NR2B-SMe ([6]; pre-blocking, radioligand as printed in Table 3 head): > 1000 nmol/kg
- ED50 in rat whole brain in vivo ^18F-FTC146 ([1]; radioligand ^18F-FTC146, AUC 20-120 min): 169 nmol/kg
- Ki ([2]; reference radioligand ^3H-pentazocine, ref 39, read-out: Ki for σ1): 0.9 nM
- Ki ([3]; reference radioligand ^3H-DTG, ref 39, read-out: Ki for σ2): 47 nM

Compound: COc1ccc2c(c1)CCN(CCCCc1ccc(C)cc1)CC2O (single isomer, unassigned; (-)) [(−)-NR2B-Me]
- Ki [8]: 42 nM
- Ki [9]: 110 nM

Compound: (+)-SKF10047
- Ki ([2]; reference radioligand ^3H-pentazocine, ref 48, read-out: Ki for σ1): 48 nM
- Ki ([3]; reference radioligand ^3H-DTG, ref 48, read-out: Ki for σ2): 625 nM

Compound: COc1ccc2c(c1)CCN(CCCCc1ccc([11CH3])cc1)CC2O (stereo not drawn) [^11C-(+)-NR2B-Me]
- BPND (SUVBL/SUVND−1), whole rat brain [10]: 5
- non-displaceable binding (X-axis intercept of Lassen plots) [10]: about 0.42 SUV
- displacement from peak value at 90 min [10]: 46%

Compound: COc1ccc2c(c1)CCN(CCCCc1ccc([11CH3])cc1)CC2O (stereo not drawn) [^11C-(−)-NR2B-Me]
- BPND (SUVBL/SUVND−1), whole rat brain [10]: 5
- non-displaceable binding (X-axis intercept of Lassen plots) [10]: about 0.42 SUV
- displacement from peak value at 90 min [10]: 63%

Compound: COc1ccc2c(c1)CCN(CCCCc1ccccc1[18F])C[C@@H]2O [^18F-(R)-OF-Me-NB1]
- SUVR relative to cerebellum, cortex [11]: 1.37
- SUVR relative to cerebellum, hippocampus [11]: 1.36
- SUVR relative to cerebellum, striatum [11]: 1.30
- SUVR relative to cerebellum, thalamus [11]: 1.33
- radioactivity in cerebellum as % of that in cortex [5, 14]: 73%
- radioactivity in cerebellum as % of that in hippocampus [5, 14]: 74%
- radioactivity in cerebellum as % of that in striatum [5, 14]: 77%
- radioactivity in cerebellum as % of that in thalamus [5, 14]: 75%

Compound: O=C(OCCN1CCOCC1)C1(c2ccccc2)CCCCC1 [PRE-084]
- ED50 in rat whole brain in vivo ^11C-(−)-NR2B-Me ([6]; pre-blocking): > 1000 nmol/kg

Compound: COc1ccc2c(c1)CCN(CCCCc1ccc(C)cc1)CC2O (single isomer, unassigned; (+)) [(+)-NR2B-Me]
- Ki [8]: 91 nM
- Ki [9]: 100 nM

Compound: CC(C)=CCN1CC[C@]2(C)c3cc(O)ccc3C[C@H]1[C@H]2C [(+)-Pentazocine]
- ED50 in rat whole brain in vivo ^11C-(−)-NR2B-Me ([6]; pre-blocking): > 1000 nmol/kg

Reference: PMC10076467 (EJNMMI Research, 2023)
